# US9328099B2, “Cyanomethylpyrazole carboxamides as janus kinase inhibitors” (Merck Sharp & Dohme Corp., priority 2011, dated 2016)
# How the values were obtained:
# JAK1 = JAK1 (Homo sapiens (Human), UniProt P23458); assay: Jak Biochemical HTRF Assay, JAK1; conditions: HTRF biochemical assay, GST-tagged catalytic domain; top concentration tested […]; read-out: JAK1 IC50
# Text: (§1) Jak Biochemical HTRF Assay Protocol
# (§2) Subsequent reagent additions employed an Agilent Bravo.
# JAK2 = JAK2 (Homo sapiens (Human), UniProt O60674); assay: Jak Biochemical HTRF Assay, JAK2; conditions: HTRF biochemical assay, GST-tagged catalytic domain; top concentration tested […]
# Text: as §1, §2
# Chain of JAK1 (P23458 875-1153): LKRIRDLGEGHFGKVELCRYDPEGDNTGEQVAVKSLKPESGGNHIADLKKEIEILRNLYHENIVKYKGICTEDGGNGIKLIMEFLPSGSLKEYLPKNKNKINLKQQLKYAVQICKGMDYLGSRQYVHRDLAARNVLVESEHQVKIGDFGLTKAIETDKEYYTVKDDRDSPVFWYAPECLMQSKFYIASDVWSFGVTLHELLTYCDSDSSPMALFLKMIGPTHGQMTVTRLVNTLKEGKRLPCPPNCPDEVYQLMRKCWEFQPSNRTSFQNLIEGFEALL
# Chain of JAK2 (O60674 849-1124): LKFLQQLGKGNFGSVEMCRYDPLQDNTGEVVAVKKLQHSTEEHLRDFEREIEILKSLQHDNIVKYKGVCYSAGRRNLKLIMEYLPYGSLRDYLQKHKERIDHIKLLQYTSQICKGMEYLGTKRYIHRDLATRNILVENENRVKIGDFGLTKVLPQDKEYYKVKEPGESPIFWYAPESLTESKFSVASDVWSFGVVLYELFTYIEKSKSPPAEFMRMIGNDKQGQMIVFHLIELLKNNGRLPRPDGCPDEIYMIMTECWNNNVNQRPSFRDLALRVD
SMILES,IC50 (JAK1) [nM],IC50 (JAK2) [nM]
"N#CCC1(n2cc(C(N)=O)c(Nc3ccc(S(=O)(=O)C(F)F)cc3)n2)CCC(NC2CCOCC2)CC1 (stereo not drawn) [Example 40-66, Cis or trans 1-[1-(cyanomethyl)-4-(tetrahydro-2H-pyran-4-ylamino)cyclohexyl]-3-({4-[(difluoromethyl)sulfonyl]phenyl}amino)-1H-pyrazole-4-carboxamide]",344,> 1500
"N#CCC1(n2cc(C(N)=O)c(Nc3ccc(S(=O)(=O)C(F)F)cc3)n2)CCC(N2CCC(O)CC2)CC1 (stereo not drawn) [Example 40-67, Cis or trans 1-[1-(cyanomethyl)-4-(4-hydroxypiperidin-1-yl)cyclohexyl]-3-({4-[(difluoromethyl)sulfonyl]phenyl}amino)-1H-pyrazole-4-carboxamide]",37,773
"N#CCC1(n2cc(C(N)=O)c(Nc3ccc(F)cc3)n2)CCC(N2CCC(F)(F)CC2)CC1 (stereo not drawn) [Example 40-70, Cis or trans 1-[1-(cyanomethyl)-4-(4,4-difluoropiperidin-1-yl)cyclohexyl]-3-[(4-fluorophenyl)amino]-1H-pyrazole-4-carboxamide]",0.2,9
"CN(CCS(C)(=O)=O)C1CCC(CC#N)(n2cc(C(N)=O)c(Nc3ccc(F)cc3)n2)CC1 (stereo not drawn) [Example 40-72, Cis or trans 1-[1-(cyanomethyl)-4-{methyl[2-(methylsulfonyl)ethyl]amino}cyclohexyl]-3-[(4-fluorophenyl)amino]-1H-pyrazole-4-carboxamide]",1,37

# Next, values leading:
IC50 (JAK1) [nM],IC50 (JAK2) [nM],SMILES
38,832,"N#CCC1(n2cc(C(N)=O)c(Nc3ccnc(F)c3)n2)CCC(Nc2cccc(Cl)c2)CC1 (stereo not drawn) [Example 40-62, Cis or trans 1-{4-[(3-chlorophenyl)amino]-1-(cyanomethyl)cyclohexyl}-3-[(2-fluoropyridin-4-yl)amino]-1H-pyrazole-4-carboxamide]"
0.03,1,"N#CCC1(n2cc(C(N)=O)c(Nc3ccnc(F)c3)n2)CCC(Nc2cc(F)ccc2F)CC1 (stereo not drawn) [Example 40-63, Cis or trans 1-{1-(cyanomethyl)-4-[(2,5-difluorophenyl)amino]cyclohexyl}-3-[(2-fluoropyridin-4-yl)amino]-1H-pyrazole-4-carboxamide]"
0.05,2,"N#CCC1(n2cc(C(N)=O)c(Nc3ccnc(F)c3)n2)CCC(Nc2cccc(F)c2)CC1 (stereo not drawn) [Example 40-64, Cis or trans 1-{1-(cyanomethyl)-4-[(3-fluorophenyl)amino]cyclohexyl}-3-[(2-fluoropyridin-4-yl)amino]-1H-pyrazole-4-carboxamide]"
9,667,"N#CCC1(n2cc(C(N)=O)c(Nc3ccc(F)cc3)n2)CCC(NCC2CC2)CC1 (stereo not drawn) [Example 40-69, Cis or trans 1-{1-(cyanomethyl)-4-[(cyclopropylmethyl)amino]cyclohexyl}-3-[(4-fluorophenyl)amino]-1H-pyrazole-4-carboxamide]"
24,814,"COCCNC1CCC(CC#N)(n2cc(C(N)=O)c(Nc3ccc(F)cc3)n2)CC1 (stereo not drawn) [Example 40-71, Cis or trans 1-{1-(cyanomethyl)-4-[(2-methoxyethyl)amino]cyclohexyl}-3-[(4-fluorophenyl)amino]-1H-pyrazole-4-carboxamide]"
139,> 1500,"N#CCC1(n2cc(C(N)=O)c(Nc3ccc(F)cc3)n2)CCC(Nc2ccc(C(F)(F)F)cc2)CC1 (stereo not drawn) [Example 40-73, Cis or trans 1-[1-(cyanomethyl)-4-{[4-(trifluoromethyl)phenyl]amino}cyclohexyl]-3-[(4-fluorophenyl)amino]-1H-pyrazole-4-carboxamide]"
1,35,"COC1CN(C2CCC(CC#N)(n3cc(C(N)=O)c(Nc4ccc(F)cc4)n3)CC2)C1 (stereo not drawn) [Example 40-74, Cis or trans 1-[1-(cyanomethyl)-4-(3-methoxyazetidin-1-yl)cyclohexyl]-3-[(4-fluorophenyl)amino]-1H-pyrazole-4-carboxamide]"
